Results taken from patent publication US20230064292A1, “METHODS OF TREATING PSMA-POSITIVE CANCER USING RADIONUCLIDE THERAPY” (priority 2020, published 2023).

How the values were obtained:
[1] = 177Lu-PSMA-617 (7.4 GBq), Violet et al; cited from earlier work
tumor = conditions: cited from earlier work
[2] = reported value; cited from earlier work
[3] = test system: PSMA-expressing PC3-PIP cells; experiment: Cellular uptake and internalization in PSMA-expressing PC3-PIP cells; format: cell-based
Description: The PSMA binding scaffold of PSMA binds irreversibly to the extracellular enzymatic domain of PSMA leading to rapid internalization by PSMA-expressing cancer cells. Tumor cell uptake of CTT1403 is ˜84% after just 2½ hours (FIG. 1), compared to less than 40% tumor cell uptake of ^177Lu-PSMA-617 (structure shown below), in PSMA-expressing PC3-PIP cells.
Given that 99% of cell bound CTT1403 is internalized, compared to just 15% of ^177Lu-PSMA-617, targeting by CTT1403 is expected to confer a significant therapeutic advantage. This greater uptake will allow treatment of smaller tumors for a longer time. Both irreversible binding and cellular internalization increases exposure of target tissue to the therapeutic agent. Greater accumulation in the target tissue will permit a lower efficacious dose and/or dosing frequency, thus reducing a patient's total clinical exposure to the radionuclide and improving the therapeutic index.

[4] = previous dosimetry studies in patients; cited from earlier work
[5] = test system: bone metastases in prostate cancer; conditions: palliative treatment of bone metastases in prostate cancer; cited from earlier work
[6] = 177Lu-PSMA-617 (7.4 GBq), Violet et al

Compound	Kidney dose, Dose Gy/GBq [1]	Kidney dose, Mean Dose for (Gy) [1]	Tumor (PSA < 50%), Dose Gy/GBq (tumor; [6])	Tumor (PSA < 50%), Mean Dose for (Gy) (tumor; [6])	Tumor (PSA ≥ 50%), Dose Gy/GBq (tumor; [6])	Tumor (PSA ≥ 50%), Mean Dose for (Gy) (tumor; [6])	tumor dose delivered that is associated with efficacy (reduction of circulating PSA) (tumor; over several cycles of therapy, published studies)	half-life during the elimination phase [2]	initial half-life during the distribution phase [2]	cell bound agent that is internalized ([3]; PSMA-expressing PC3-PIP cells)	Tumor cell uptake ([3]; after 2½ hours, PSMA-expressing PC3-PIP cells (FIG. 1))	potential dose limited organs [4]	average increase in survival [5]
O=C([O-])CN1CCN(CC(=O)[O-])CCN(CC(=O)NCC2CCC(C(=O)N[C@@H](Cc3ccc4ccccc4c3)C(=O)NCCCC[C@H](NC(=O)N[C@@H](CCC(=O)O)C(=O)O)C(=O)O)CC2)CCN(CC(=O)[O-])CC1.[177Lu+3] (stereo partly shown) [177Lu-PSMA-617]	0.77 Gy/GBq	3.2 Gy	1.41 Gy/GBq	10.4 Gy	1.91 Gy/GBq	14.1 Gy	10-14 Gy	10.8 ± 2.5 h	9.6 ± 5.4 min	15%	less than 40%	salivary glands, kidneys and bone marrow	
[Cl][223Ra][Cl] [Radium-223 chloride]													3-4 months
